Results: ChEMBL document CHEMBL3885881, “DrugMatrix”

Species on record: Rattus norvegicus
Assay: DrugMatrix - Regimen: Daily Repeat
Type: toxicity, organism-based, Sprague-Dawley
Parameters: regimen Daily Repeat, gender Male, age 6-8 weeks
Settings: in vivo, po, route oral GAVAGE, dose level High, vehicle 100 % SALINE; for HEMOGLOBIN / LEUKOCYTE COUNT / LYMPHOCYTE / MEAN CORPUSCULAR HEMOGLOBIN / MEAN CORPUSCULAR HEMOGLOBIN CONCENTRATION / MONOCYTE / NEUTROPHIL / NUCLEATED RED BLOOD CELLS / PLATELET COUNT / ABSOLUTE BASOPHIL / ABSOLUTE EOSINOPHIL / ABSOLUTE LYMPHOCYTE / ABSOLUTE MONOCYTE / ABSOLUTE SEGMENTED NEUTROPHIL / BASOPHIL / EOSINOPHIL / ERYTHROCYTE COUNT / HEMATOCRIT: tissue Blood; for ALANINE AMINOTRANSFERASE / ALBUMIN / ALKALINE PHOSPHATASE / ASPARTATE AMINOTRANSFERASE / BLOOD UREA NITROGEN / CARBON DIOXIDE / CHLORIDE / CHOLESTEROL / CREATINE PHOSPHOKINASE / CREATININE / GLUCOSE / LACTATE DEHYDROGENASE / LIPASE / PHOSPHORUS / SODIUM / TOTAL BILIRUBIN / TOTAL PROTEIN: tissue Plasma

## CN(C)C=O [DIMETHYLFORMAMIDE]
1400 mg/kg, 120 h, time 5 day
  HEMOGLOBIN: 16.7 G/DL
  LEUKOCYTE COUNT: 7.95 x10E3/uL
  LYMPHOCYTE: 93%
  MEAN CORPUSCULAR HEMOGLOBIN: 22.95 pg
  MEAN CORPUSCULAR HEMOGLOBIN CONCENTRATION: 36.55 G/DL
  MONOCYTE: 0.5%
  NEUTROPHIL: 6.5%
  NUCLEATED RED BLOOD CELLS: 0 /100WBC
  PLATELET COUNT: 998 x10E3/uL
  ALANINE AMINOTRANSFERASE: 5117.67 u/L
  ALBUMIN: 4.53 G/DL
  ALKALINE PHOSPHATASE: 286.67 u/L
  ASPARTATE AMINOTRANSFERASE: 8354 u/L
  BLOOD UREA NITROGEN: 21 mg/dL
  CARBON DIOXIDE: 35 mmol/L
  CHLORIDE: 92 MEQ/L
  CHOLESTEROL: 136 mg/dL
  CREATINE PHOSPHOKINASE: 493.33 u/L
  CREATININE: 0.36 mg/dL
  GLUCOSE: 145 mg/dL
  LACTATE DEHYDROGENASE: 42966.33 u/L
  LIPASE: 12.33 u/L
  PHOSPHORUS: 13.03 mg/dL
  SODIUM: 146.2 MEQ/L
  TOTAL BILIRUBIN: 0.5 mg/dL
  TOTAL PROTEIN: 7.33 G/DL
2100 mg/kg, 72 h, time 3 day
  ABSOLUTE BASOPHIL: 0 CELLS/uL
  ABSOLUTE EOSINOPHIL: 16 CELLS/uL
  ABSOLUTE LYMPHOCYTE: 6718 CELLS/uL
  ABSOLUTE MONOCYTE: 23.33 CELLS/uL
  ABSOLUTE SEGMENTED NEUTROPHIL: 509.33 CELLS/uL
  BASOPHIL: 0%
  EOSINOPHIL: 0.17%
  ERYTHROCYTE COUNT: 5.8 x10E6/uL
  HEMATOCRIT: 38.27%
  HEMOGLOBIN: 13.57 G/DL
  LEUKOCYTE COUNT: 7.27 x10E3/uL
  LYMPHOCYTE: 92.5%
  MEAN CORPUSCULAR HEMOGLOBIN: 23.42 pg
  MEAN CORPUSCULAR HEMOGLOBIN CONCENTRATION: 35.45 G/DL
  MONOCYTE: 0.33%
  NEUTROPHIL: 7%
  NUCLEATED RED BLOOD CELLS: 0 /100WBC
  PLATELET COUNT: 1059 x10E3/uL
  ALANINE AMINOTRANSFERASE: 105.67 u/L
  ALBUMIN: 4.47 G/DL
  ALKALINE PHOSPHATASE: 224.5 u/L
  ASPARTATE AMINOTRANSFERASE: 117.33 u/L
  BLOOD UREA NITROGEN: 14.5 mg/dL
  CARBON DIOXIDE: 31.33 mmol/L
  CHLORIDE: 100.17 MEQ/L
  CHOLESTEROL: 99.33 mg/dL
  CREATINE PHOSPHOKINASE: 191 u/L
  CREATININE: 0.22 mg/dL
  GLUCOSE: 143.67 mg/dL
  LACTATE DEHYDROGENASE: 109.83 u/L
  LIPASE: 10.33 u/L
  PHOSPHORUS: 9.67 mg/dL
  SODIUM: 146.58 MEQ/L
  TOTAL BILIRUBIN: 0.17 mg/dL
  TOTAL PROTEIN: 6.25 G/DL
2100 mg/kg, […], time 7 day
  ABSOLUTE BASOPHIL: 0 CELLS/uL
  ABSOLUTE EOSINOPHIL: 0 CELLS/uL
  ABSOLUTE LYMPHOCYTE: 6108.5 CELLS/uL
  ABSOLUTE MONOCYTE: 208.75 CELLS/uL
  ABSOLUTE SEGMENTED NEUTROPHIL: 1557.75 CELLS/uL
  BASOPHIL: 0%
  EOSINOPHIL: 0%
  ERYTHROCYTE COUNT: 6.06 x10E6/uL
  HEMATOCRIT: 37.55%
  HEMOGLOBIN: 14.95 G/DL
  LEUKOCYTE COUNT: 7.88 x10E3/uL
  LYMPHOCYTE: 79.5%
  MEAN CORPUSCULAR HEMOGLOBIN: 24.67 pg
  MEAN CORPUSCULAR HEMOGLOBIN CONCENTRATION: 39.83 G/DL
  MONOCYTE: 2.5%
  NEUTROPHIL: 18%
  NUCLEATED RED BLOOD CELLS: 0 /100WBC
  PLATELET COUNT: 396 x10E3/uL
  ALANINE AMINOTRANSFERASE: 452.75 u/L
  ALBUMIN: 4.22 G/DL
  ALKALINE PHOSPHATASE: 271.25 u/L
  ASPARTATE AMINOTRANSFERASE: 1219.25 u/L
  BLOOD UREA NITROGEN: 15.25 mg/dL
  CARBON DIOXIDE: 29 mmol/L
  CHLORIDE: 103 MEQ/L
  CHOLESTEROL: 75.75 mg/dL
  CREATINE PHOSPHOKINASE: 261 u/L
  CREATININE: 0.25 mg/dL
  GLUCOSE: 147.75 mg/dL
  LACTATE DEHYDROGENASE: 101.25 u/L
  LIPASE: 10.25 u/L
  PHOSPHORUS: 7.55 mg/dL
  SODIUM: 147.12 MEQ/L
  TOTAL BILIRUBIN: 0.33 mg/dL
  TOTAL PROTEIN: 5.7 G/DL
